Assay results: US20210284668A1, “GOLD (I)-PHOSPHINE 1,2,3-TRIAZOLE DERIVATIVES WITH ANTIBIOTIC PROPERTIES” (Centre National de la Recherche Scientifique, priority 2018, published 2021)
Values joined by “and” are separate entries in the source; they are usually repeats but may differ in a detail not shown here. Equal entries are not always repeated.

Key:
E. coli ATCC25922 = experiment: MIC by microdilution, E. coli ATCC25922; type: cell-based, Escherichia coli; details: E. coli ATCC25922 (wild-type), in duplicate
Summary of the method: (§1)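 Broth microdilution per CLSI document M07-A10, Mueller-Hinton medium, each MIC run in duplicate. Strains include E. coli ATCC25922 (wild-type), S. epidermidis ATCC35984 (MecA positive) and S. aureus ATCC700699 (MecA positive, glycopeptide resistant), within a mixed panel of susceptible and resistant Gram-positive/Gram-negative bacteria.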

S. aureus ATCC29213 = experiment: MIC by microdilution, S. aureus ATCC29213; type: cell-based, Staphylococcus aureus; details: S. aureus ATCC29213 (MecA negative, wild-type), Mueller-Hinton broth, in duplicate
Method: The antibacterial profile of each derivative was evaluated by the standard microdilution method for susceptibility testing on 16 different strains, following the guidelines of CLSI. The selected panel included: • S. aureus ATCC25923 (MecA negative, wild-type) • S. aureus ATCC29213 (MecA negative, wild-type) • S. aureus ATCC700699 (MecA positive, glycopeptide resistant) • S. aureus ST20131365 (MecA positive, glycopeptide resistant) • S. epidermidis ATCC14990 (MecA negative, wild-type) • S. epidermidis ATCC35984 (MecA positive) • S. epidermidis ST20140436 (MecA positive, glycopeptide resistant) • S. epidermidis ST20150446 (MecA positive, glycopeptide resistant) • E. faecalis JH2-2 (wild-type) • E. faecalis UCN41 (VanA positive, glycopeptide resistant) • E. faecalis V583 (VanB positive, glycopeptide resistant) • E. faecium ATCC19434T (wild-type) • E. faecium BM4147 (VanA positive, glycopeptide resistant) • E. faecium AUS0004 (VanB positive, glycopeptide resistant) • E. coli ATCC25922 (wild-type) • Clostridium difficile ATCC9689 (wild-type)
Both series issued from the SAR study were evaluated for their antibacterial activity on a panel of characterized strains obtained from the French National Reference Centers for Staphylococci (Lyon, Pr. Fréderique Laurent) and for Enterococci (Caen, Pr. Vincent Cattoir), respectively. As shown in the following tables, both series contain very active compounds on multi-resistant Gram-positive bacteria (Minimal Inhibitory Concentrations lower than comparator antibiotic ampicillin). Furthermore, a very important antibacterial effect has been shown too on a strain of Clostridium difficile, a Gram-positive, spore-forming, bacillus responsible for post-antibiotic diarrhoae.
The antibacterial activity of test compounds was evaluated on a selected panel of Gram-positive (4 Staphylococcus aureus, 4 Staphylococcus epidermidis, 3 Enterococcus faecalis, 3 Enterococcus faecium, 1 Clostridium difficile) and Gram-negative strains (1 Escherichia coli, 1 Klebsiella pneumoniae, 1 Pseudomonas aeruginosa, 1 Acinetacter baumannii) with known features of antibiotic resistance (from wild-type susceptibility to multi-drug resistance). The Minimal Inhibitory Concentration (MIC) of test compounds was determined in duplicate by the microdilution method in 96-well microplates with a final volume of 100 μL per well and Mueller-Hinton broth as the growth medium, as recommended by the CLSI (Clinical and Laboratory Standards Institute, document Mo7-A10, USA).

E. faecalis UCN41 = experiment: MIC by microdilution, E. faecalis UCN41; type: cell-based, Enterococcus faecalis; parameters: unit not given here; details: E. faecalis UCN41 (VanA positive, glycopeptide resistant), in duplicate
Summary of the method: (§2)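 Broth microdilution per CLSI (M07-A10) in Mueller-Hinton broth, run in duplicate; MIC recorded as minimal inhibitory concentration. Panel spans wild-type to multidrug-resistant strains, e.g. S. aureus ATCC700699 (MecA+, glycopeptide resistant), S. epidermidis ATCC35984 (MecA+), E. coli ATCC25922 (wild-type).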

S. aureus ATCC25923 = experiment: MIC by microdilution, S. aureus ATCC25923; type: cell-based, Staphylococcus aureus; details: S. aureus ATCC25923 (MecA negative, wild-type), Mueller-Hinton broth, in duplicate
Summary of the method: as §2

E. faecalis JH2-2 = experiment: MIC by microdilution, E. faecalis JH2-2; type: cell-based, Enterococcus faecalis; parameters: unit not given here; details: E. faecalis JH2-2 (wild-type), in duplicate
Summary of the method: as §2

S. aureus ST20131365 = experiment: MIC by microdilution, S. aureus ST20131365; type: cell-based, Staphylococcus aureus; details: S. aureus ST20131365 (MecA positive, glycopeptide resistant), in duplicate
Summary of the method: as §1

[1] = tested on: panel of Gram-positive and Gram-negative strains; experiment: Antibacterial profile on the selected panel of strains; type: cell-based; details: summary of Tables 1-12
Summary of the method: as §1

E. faecium BM4147 = experiment: MIC by microdilution, E. faecium BM4147; type: cell-based, Enterococcus faecium; parameters: unit not given here; details: E. faecium BM4147 (VanA positive, glycopeptide resistant), in duplicate
Summary of the method: as §2

S. aureus ATCC700699 = experiment: MIC by microdilution, S. aureus ATCC700699; type: cell-based, Staphylococcus aureus; parameters: unit not given here; details: S. aureus ATCC700699 (MecA positive, glycopeptide resistant), in duplicate
Summary of the method: as §1

E. faecium ATCC19434T = experiment: MIC by microdilution, E. faecium ATCC19434T; type: cell-based, Enterococcus faecium; parameters: unit not given here; details: E. faecium ATCC19434T (wild-type), in duplicate
Summary of the method: as §2

E. faecium AUS0004 = experiment: MIC by microdilution, E. faecium AUS0004; type: cell-based, Enterococcus faecium; details: E. faecium AUS0004 (VanB positive, glycopeptide resistant), in duplicate
Summary of the method: as §2

[2] = tested on: Clostridium difficile ATCC700057; experiment: MIC by microdilution, Clostridium difficile; type: cell-based; details: strain ATCC70057 [sic] (Tables 1-2) / ATCC700057 (Tables 3-10), in duplicate
E. faecalis V583 = experiment: MIC by microdilution, E. faecalis V583; type: cell-based, Enterococcus faecalis; details: E. faecalis V583 (VanB positive, glycopeptide resistant), in duplicate
Summary of the method: as §1

S. epidermidis ATCC14990 = experiment: MIC by microdilution, S. epidermidis ATCC14990; type: cell-based, Staphylococcus epidermidis; details: S. epidermidis ATCC14990 (MecA negative, wild-type), in duplicate
Summary of the method: as §1

[3] = tested on: S. epidermidis ST20150446; experiment: MIC by microdilution, S. epidermidis ST20150446; type: cell-based, Staphylococcus epidermidis; details: S. epidermidis ST20150446 (MecA positive, glycopeptide resistant), in duplicate
Summary of the method: as §2

S. epidermidis ATCC35984 = experiment: MIC by microdilution, S. epidermidis ATCC35984; type: cell-based, Staphylococcus epidermidis; details: S. epidermidis ATCC35984 (MecA positive), in duplicate
Summary of the method: as §1

[4] = tested on: S. epidermidis ST20140436; experiment: MIC by microdilution, S. epidermidis ST20140436; type: cell-based, Staphylococcus epidermidis; details: S. epidermidis ST20140436 (MecA positive, glycopeptide resistant), in duplicate
Summary of the method: as §2

| SMILES | Minimal Inhibitory Concentration (MIC) (E. coli ATCC25922) | Minimal Inhibitory Concentration (MIC) (S. aureus ATCC29213) | Minimal Inhibitory Concentration (MIC) (E. faecalis UCN41) | Minimal Inhibitory Concentration (MIC) (S. aureus ATCC25923) | Minimal Inhibitory Concentration (MIC) (E. faecalis JH2-2) | Minimal Inhibitory Concentration (MIC) (S. aureus ST20131365) | antimicrobial / antibacterial activity (in words) [1] | Minimal Inhibitory Concentration (MIC) (E. faecium BM4147) | Minimal Inhibitory Concentration (MIC) (S. aureus ATCC700699) | Minimal Inhibitory Concentration (MIC) (E. faecium ATCC19434T) | Minimal Inhibitory Concentration (MIC) (E. faecium AUS0004) | Minimal Inhibitory Concentration (MIC) [2] | Minimal Inhibitory Concentration (MIC) (E. faecalis V583) | Minimal Inhibitory Concentration (MIC) (S. epidermidis ATCC14990) | Minimal Inhibitory Concentration (MIC) [3] | Minimal Inhibitory Concentration (MIC) (S. epidermidis ATCC35984) | Minimal Inhibitory Concentration (MIC) [4] |
| --- | --- | --- | --- | --- | --- | --- | --- | --- | --- | --- | --- | --- | --- | --- | --- | --- | --- |
| CC[P+](CC)(CC)[Au-][c]1nn[nH]c1-c1ccc(C(=O)NC(C(=O)O)c2ccccc2)cc1 (stereo not drawn) [TMB23] | >8 | 0.125 | 0.125 | ≤0.06 | 0.25 | 0.125 | have antimicrobial activity | 0.25 and 0.5 | 0.125 | 0.25 | 0.25 | ≤0.06 | 0.125 and 0.25 | ≤0.06 | ≤0.06 | – | – |
| CC[P+](CC)(CC)[Au-][c]1nn[nH]c1-c1cn[nH]c1 [TMB31] | >8 | ≤0.06 | 0.25 | ≤0.06 | 0.25 | – | have antimicrobial activity | 0.25 | 0.125 | 0.25 | 0.25 | ≤0.06 | 0.25 | ≤0.06 | ≤0.06 | ≤0.06 | ≤0.06 |
| CC[P+](CC)(CC)[Au-][c]1nn[nH]c1C1CCC(C(=O)O)CC1 (stereo not drawn) [TMB25] | >8 | 0.25 | 0.125 | – | 0.125 | – | have antimicrobial activity | 0.125 | 0.25 | 0.125 | 0.125 | ≤0.06 | 0.125 | ≤0.06 | 0.125 and 0.25 | ≤0.06 | – |
| CC[P+](CC)(CC)[Au-][c]1nn[nH]c1-c1ccc(C(=O)O)cc1 [TMB14] | >8 | 0.125 | 0.5 and 1 | 0.125 | 0.5 | 0.125 and 0.25 | have antimicrobial activity | 0.5 | 0.125 | 0.5 | 0.5 | 0.125 | 1 | ≤0.06 | – | ≤0.06 | – |
| CC[P+](CC)(CC)[Au-][c]1nn[nH]c1COC(=O)N[C@H](CC(=O)O)C(=O)O [TMB29] | >8 | 0.125 | 0.25 | 0.125 | 0.25 | 0.125 | have antimicrobial activity | 0.25 and 0.5 | 0.125 | 0.25 | 0.5 | ≤0.06 | 0.25 | ≤0.06 | – | ≤0.06 | ≤0.06 |
| CC1(C)S[C@@H]2[C@H](NC(=O)[C@H](N)c3ccccc3)C(=O)N2[C@H]1C(=O)O [Ampi, ampicillin, reference compound] | 2 | 0.5 | – | – | – | 4 | – | 4 and 8 | – | 0.5 | >8 | 0.5 and 0.5-1 and 0.25 | 0.5 | – | 8 and 4 | >8 | 4 and 8 |
